The results in this text go back to PubChem BioAssay (NCI).

The structures appear in SMILES notation.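 Assay format: 96-well plates, 48-hour exposure. GI50: concentration for 50% inhibition of growth. TGI: concentration producing complete growth inhibition.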 Some results are limits rather than exact numbers.

One experiment has as its system SF-539 CNS. Put plainly: growth of human tumour cells (NCI), 48 h.
`CCOC(=O)C(C)(C)Oc1ccc2c(C)c(-c3ccc(Cl)cc3)c(=O)oc2c1` yielded a TGI of more than 100 µM.
On the same count and under the same terms, as for `Cc1c(Cl)cccc1N1C(=O)C(Cl)=C(Cl)C1=O`, the figure is more than 100 µM; as for `COc1ccc(NC(=O)/C(N=O)=C(/C)O)cc1`, more than 100 µM.
As to `COc1cccc(/C=N/[N-]C(=O)c2ccncc2)c1[O-].[Cu+2].[OH3+]`, the GI50 is 18.2 µM and the TGI is 76.8 µM.
As for `COc1ccc(C(O)c2nccn2C)c(OC)c1` (configuration not stated), the TGI was more than 100 µM.
On to `C1CSCCSCCS1`, for which the TGI was more than 100 µM.
With `CCc1c(OC(C)=O)c2c(NC3OC(COC(C)=O)C(OC(C)=O)C(OC(C)=O)C3OC(C)=O)nc(OC)nc2oc1=O` (configuration not stated), the TGI is more than 100 µM.
On the same count and under the same terms, as for `O=C(NC(=O)c1cn(CCNCCO)c(=O)[nH]c1=O)OCc1ccccc1`, the figure is more than 100 µM; as for `O=[N+]([O-])c1ccc(-n2nnc(C3=NCCN3)c2-c2ccc(Cl)cc2)cc1`, more than 100 µM; as for `CCC1C2C=CC(CC2)N1S(=O)(=O)c1ccc(C)cc1` (configuration not stated), 76.6 µM.
The same measure, in the same setting: as for `CCOc1ccc(N2C(=O)/C(=C/c3ccc(N(CCC#N)CCC#N)cc3)N=C2c2cc([N+](=O)[O-])ccc2Cl)cc1`, the figure is more than 100 µM; as for `COc1ccc(-c2cc(-c3ccccc3)c(C#N)c(=O)n2C2OC(CO)C(O)C(O)C2O)cc1` (configuration not stated), more than 100 µM.
The same measure, in the same setting: as for `O=C(N/N=C1/C(=O)N(c2ccc(Cl)cc2Cl)C(=O)C(=O)C1c1nc2ccccc2o1)c1ccccc1O` (configuration not stated), the figure is 97.1 µM.
`CC(=O)O[C@H]1CCC2[C@@H]3CCC4=C(O)c5nocc5C[C@]4(C)C3CC[C@@]21C` (some centres not stated): the TGI was more than 100 µM.
Same read-out and setting: as for `O=C(O)CSc1n[nH]c(-c2ccccc2)n1`, the figure is more than 100 µM.
Take `O=c1cc2oc3cc(O)c(O)cc3c(-c3ccccc3O)c-2cc1O`: the GI50 is 6.16 µM and the TGI is more than 100 µM.
Regarding `CCCCCCC[CH2][Sn]1([CH2]CCCCCCC)[O]C(=O)c2cccnc2[S]1`, the GI50 is more than 100 µM and the TGI was more than 100 µM.
In turn, `O=C1[C@@H]2C3c4ccccc4C([C@@H]2C(=O)N1c1ccccc1)S3(=O)=O` gave a TGI of more than 100 µM.
In the case of `Cc1ccc(S(=O)(=O)N/N=C/c2oc(-c3ccncc3)c(-c3ccncc3)c2[N+](=O)[O-])cc1`, the TGI is more than 100 µM.
Compound `CCc1cccc(C)c1NC(=O)C(=O)Cc1nc2ccccc2o1` had a TGI of more than 100 µM.
On the same count and under the same terms, the value for `O=C(O)[C@H](NS(=O)(=O)c1ccc2ccccc2c1)c1ccccc1` was more than 100 µM; that for `CCOc1ccc2c(c1)[n+]([O-])c(-c1ccccc1Cl)c(N)[n+]2[O-]` was more than 100 µM; that for `O=C1c2ccccc2C2(O)c3cc4ccccc4cc3OC12O` (configuration not stated) was more than 100 µM.
Same read-out and setting: the value for `CN(C)c1c([O-])c(=[N+](C)C)c1=O` was more than 100 µM.

For a further experiment, the system named is UO-31 renal. The experiment in a line: growth of human tumour cells (NCI), 48 h.
The compound `c1ccc(SC2CCSc3ccccc3C2Sc2ccccc2)cc1` (configuration not stated) displayed a TGI of more than 100 µM.
Consider `COC(=O)[C@]1(C)CCCC2(C)C1CC[C@H]1C=C(C)[C@H]3CCC12C3` (some centres not stated), for which the TGI was more than 100 µM.
On the same count and under the same terms, the value for `O=c1n(-c2ccccc2)c(=O)n2n1C1C=CC2C2C(C1)C2(Cl)Cl` (configuration not stated) was more than 100 µM.
Same read-out and setting: the value for `Cc1ccc(Cn2c(C)nc3c2C(=O)c2ccccc2C3=O)cc1` was more than 100 µM; that for `CCOC(=O)C(C)(C)Oc1ccc2c(C)c(-c3ccc(Cl)cc3)c(=O)oc2c1` was more than 100 µM; that for `Cc1c(Cl)cccc1N1C(=O)C(Cl)=C(Cl)C1=O` was more than 100 µM.
For the compound `COc1ccc(NC(=O)/C(N=O)=C(/C)O)cc1`, the TGI was more than 100 µM.
`COc1cccc(/C=N/[N-]C(=O)c2ccncc2)c1[O-].[Cu+2].[OH3+]`: the GI50 was 45.5 µM and the TGI was more than 100 µM.
In turn, `COc1ccc(C(O)c2nccn2C)c(OC)c1` (configuration not stated) had a TGI of more than 100 µM.
`C1CSCCSCCS1`: the TGI was more than 100 µM.
As for `CCc1c(OC(C)=O)c2c(NC3OC(COC(C)=O)C(OC(C)=O)C(OC(C)=O)C3OC(C)=O)nc(OC)nc2oc1=O` (configuration not stated), the TGI was more than 100 µM.
For the compound `O=[N+]([O-])c1ccc(-n2nnc(C3=NCCN3)c2-c2ccc(Cl)cc2)cc1`, the TGI is more than 100 µM.
In turn, `CCC1C2C=CC(CC2)N1S(=O)(=O)c1ccc(C)cc1` (configuration not stated) yielded a TGI of 39.2 µM.
The compound `CCOc1ccc(N2C(=O)/C(=C/c3ccc(N(CCC#N)CCC#N)cc3)N=C2c2cc([N+](=O)[O-])ccc2Cl)cc1` yielded a TGI of more than 100 µM.
The same measure, in the same setting: as for `COc1ccc(-c2cc(-c3ccccc3)c(C#N)c(=O)n2C2OC(CO)C(O)C(O)C2O)cc1` (configuration not stated), the figure is more than 100 µM.
In the case of `CCOC(=O)C1(c2ccccc2)CCC(=O)CC1`, the TGI was more than 100 µM.
Compound `CC(=O)O[C@H]1CCC2[C@@H]3CCC4=C(O)c5nocc5C[C@]4(C)C3CC[C@@]21C` (some centres not stated) yielded a TGI of more than 100 µM.
Compound `O=C(O)CSc1n[nH]c(-c2ccccc2)n1` showed a TGI of more than 100 µM.
`O=c1cc2oc3cc(O)c(O)cc3c(-c3ccccc3O)c-2cc1O`: the GI50 was 3.3 µM and the TGI was more than 100 µM.
The like results for `CCCCCCC[CH2][Sn]1([CH2]CCCCCCC)[O]C(=O)c2cccnc2[S]1` were, in that order, more than 100 µM and more than 100 µM.
In the case of `O=C1[C@@H]2C3c4ccccc4C([C@@H]2C(=O)N1c1ccccc1)S3(=O)=O`, the TGI is more than 100 µM.
The same measure, in the same setting: the value for `COc1ccc(/C(=N\NC(=O)C(N)=O)C(c2ccc(OC)cc2)C2(O)C(=O)Nc3c(Cl)cccc32)cc1` (configuration not stated) was more than 100 µM; that for `Cc1ccc(S(=O)(=O)N/N=C/c2oc(-c3ccncc3)c(-c3ccncc3)c2[N+](=O)[O-])cc1` was more than 100 µM.
Regarding `CCc1cccc(C)c1NC(=O)C(=O)Cc1nc2ccccc2o1`, the TGI was more than 100 µM.
As to `O=C(O)[C@H](NS(=O)(=O)c1ccc2ccccc2c1)c1ccccc1`, the TGI was more than 100 µM.
Still for that read-out and setting: as for `CCOc1ccc2c(c1)[n+]([O-])c(-c1ccccc1Cl)c(N)[n+]2[O-]`, the figure is more than 100 µM; as for `CN(C)c1c([O-])c(=[N+](C)C)c1=O`, more than 100 µM.

The test system of a further experiment is DU-145 prostate. The experiment in a line: growth of human tumour cells (NCI), 48 h.
In the case of `COc1ccc(C(O)c2nccn2C)c(OC)c1` (configuration not stated), the TGI was more than 100 µM.
Still for that read-out and setting: the value for `C1CSCCSCCS1` was more than 100 µM; that for `CCSc1[nH]c(Nc2nc(-c3ccccc3)n(-c3ccccc3)n2)c(C(N)=O)c1C(N)=O` was more than 10 µM.
For `O=c1cc2oc3cc(O)c(O)cc3c(-c3ccccc3O)c-2cc1O`, the GI50 was 22.8 µM and the TGI was more than 100 µM.
